The values that follow come from patent US6812248B2, “Prevention and treatment of degenerative diseases by glutathione and phase II detoxification enzymes” (John Hopkins University School of Medicine, priority 2000, dated 2004).

Assay [1] has as its system motor neurons. The settings on record: earlier use of the culture system as preclinical screen; cited from earlier work.
In assay [2] the test system is SOD-G93 mice. The settings on record: oral daily gavage from weaning; expected result.
Text: Method: Transgenic animals will be divided into four groups of 10 animals per group. […] The third group will receive N-acetylcysteine alone, and a fourth group will receive vehicle control (CMC). […] Animals will begin treatment at weaning, and continue oral daily gavage of the drugs. Onset of disease will be monitored by alteration on rotorod performance. Animals will be studied twice weekly starting at 1 month of age. A surrogate survival measure will be determined by the ability of the animals to right themselves after being placed on the cage on their backs. If they are unable to right themselves after 30 seconds, they will be considered dead. The survival and rotorod performance of each group of the animal will be compared.
Assay [3] has as its system brain glutathione. Briefly: Blood-brain barrier permeability / whole brain GSH levels after daily oral gavage. Conditions: one week, whole brain homogenate, FIG. 5.
Assay [4] has as its system glutathione (GSH). The settings on record: 1, 5 or 10 μM for 12 h, 24 h or 48 h; no THA; FIG. 2. The method, then:
Rat spinal cord slices were similarly prepared and cultured as in the above example but without THA treatment. The tissues were cultured for one or two weeks and then incubated with 1 μM, 5, μM, or 10 μM, of sulphoraphane for 12 h, 24 h or 48 h. The tissue slices were then harvested and sonicated and assayed for total GSH content (Richie J P et al., Clinical Chemistry, 42, 64-70, 1996, the contents of which are incorporated herein by reference).

Assay [5] concerns motor neurons. The settings on record: spinal cord explant; sulforaphane 0.5, 5, 10 μM for 3 weeks; FIG. 1. The method, then:
The general experimental procedure of THA-induced cytotoxicity was previously described (Ho T et al., Experimental Neurology, 161, 664-675, 2000), the contents of which are incorporated herein by reference. Rodent spinal cord tissue slices were treated with THA and/or sulforaphane. Sulforaphane was administered at concentrations at 0, 0.5 μM, 5 μM and 10 μM for 3 weeks, changing medium every three days. At the end of the experiment, each tissue slice was fixed and stained, and remaining neurons were counted.

The test system of assay [6] is quinone reductase (QR). Here is the method:
(§1) Mouse spinal cord cultures were prepared and cultured according to Rothstein, J D and Kuncl, R W. J. Neural Chem. 65:643-651 (1995). Cultures were treated with sulforaphane for 24 hours at concentrations of 0,1 μm, 5 μm, 10 μm and 20 μm.
(§2) Mouse spinal cord cultures were prepared and cultured as above. Cultures were treated with sulforaphane for 2 weeks, twice a week, at concentrations of 1 μm, 5 μm and 10 μm.

In assay [7] the test system is glutathione transferase (GST). Here is the method:
as §1, §2

[8] abbreviates: treated 2 weeks, twice a week, at 1, 5, 10 μm, FIG. 4.
The mark [9] stands for this setting: treated 24 hours at 1, 5, 10, 20 μm, FIG. 3.

Like-named read-outs stand apart in the source and are kept apart here. Bounds are passed on as bounds.

Consider `NCC1(CC(=O)O)CCCCC1` [gabapentin, reference compound], for which the “Protection against chronic motor neuron degeneration” value (shortened to “Protection”) in assay [1] is recorded as “protective”.

Turning to `Nc1nc2ccc(OC(F)(F)F)cc2s1` [riluzole, reference compound], the “Protection” value in assay [1] is “protective”.

With `C[S+]([O-])CCCCN=C=S` (stereo not shown) [sulforaphane], the “Survival of the animals compared to control” value in assay [2] was “will improve the survival”. For the same molecule, the “Brain GSH levels” value in assay [3] is on record as “elevate GSH levels in the brain”. Moreover, the “Rise of GSH level in treated spinal cord tissue” value in assay [4] was not above 160%. Further, in assay [5], the “Prevention of THA-induced motor neuron death” value was “significantly prevented THA-induced motor neuron death”. Also, the “Induction of QR activity” value in assay [6] (setting [8]) and in assay [6] (setting [9]) was “induced” each time. Also, the “Induction of GST activity” value in assay [7] (setting [8]) and in assay [7] (setting [9]) was “induced” throughout.

As for “insulin growth factor (IGF-1): insulin growth factor, potential neuroprotective agent”, the “Protection” value in assay [1] is on record as “protective”.

B1: brain-derived neurotrophic factor (BDNF): brain-derived neurotrophic factor (protein, UniProt P23560 129-247, looked up)
Neurotrophic factor BDNF: HSDPARRGELSVCDSISEWVTAADKKTAVDMSGGTVTVLEKVPVSKGQLKQYFYETKCNPMGYTKEGCRGIDKRHWNSQCRTTQSYVRALTMDSKKRIGWRFIRIDTSCVCTLTIKRGR
modifications: Neurotrophic factor BDNF
With B1, the “Protection” value in assay [1] is on record as “failed to protect”.

B2: ciliary neurotrophic factor (CNTF): ciliary neurotrophic factor (protein, UniProt P26441 1-200, looked up)
Ciliary neurotrophic factor: MAFTEHSPLTPHRRDLCSRSIWLARKIRSDLTALTESYVKHQGLNKNINLDSADGMPVASTDQWSELTEAERLQENLQAYRTFHVLLARLLEDQQVHFTPTEGDFHQAIHTLLLQVAAFAYQIEELMILLEYKIPRNEADGMPINVGDGGLFEKKLWGLKVLQELSQWTVRSIHDLRFISSHQTGIPARGSHYIANNKKM
In the case of B2, the “Protection” value in assay [1] is “failed to protect”.
